Drawing on patent US11447466B2, “Substituted indole compounds useful as inhibitors of TLR7/8/9” (BRISTOL-MYERS SQUIBB COMPANY, priority 2017, dated 2022), this text covers IC50 for ten molecules.

Common to all, as to assay type: cell-based
One experiment concerns the target T1, human TLR9 (Homo sapiens, UniProt Q9NR96).
T1 construct: host or cells: HEK-Blue cells
T1 sequence (Q9NR96 26-1032): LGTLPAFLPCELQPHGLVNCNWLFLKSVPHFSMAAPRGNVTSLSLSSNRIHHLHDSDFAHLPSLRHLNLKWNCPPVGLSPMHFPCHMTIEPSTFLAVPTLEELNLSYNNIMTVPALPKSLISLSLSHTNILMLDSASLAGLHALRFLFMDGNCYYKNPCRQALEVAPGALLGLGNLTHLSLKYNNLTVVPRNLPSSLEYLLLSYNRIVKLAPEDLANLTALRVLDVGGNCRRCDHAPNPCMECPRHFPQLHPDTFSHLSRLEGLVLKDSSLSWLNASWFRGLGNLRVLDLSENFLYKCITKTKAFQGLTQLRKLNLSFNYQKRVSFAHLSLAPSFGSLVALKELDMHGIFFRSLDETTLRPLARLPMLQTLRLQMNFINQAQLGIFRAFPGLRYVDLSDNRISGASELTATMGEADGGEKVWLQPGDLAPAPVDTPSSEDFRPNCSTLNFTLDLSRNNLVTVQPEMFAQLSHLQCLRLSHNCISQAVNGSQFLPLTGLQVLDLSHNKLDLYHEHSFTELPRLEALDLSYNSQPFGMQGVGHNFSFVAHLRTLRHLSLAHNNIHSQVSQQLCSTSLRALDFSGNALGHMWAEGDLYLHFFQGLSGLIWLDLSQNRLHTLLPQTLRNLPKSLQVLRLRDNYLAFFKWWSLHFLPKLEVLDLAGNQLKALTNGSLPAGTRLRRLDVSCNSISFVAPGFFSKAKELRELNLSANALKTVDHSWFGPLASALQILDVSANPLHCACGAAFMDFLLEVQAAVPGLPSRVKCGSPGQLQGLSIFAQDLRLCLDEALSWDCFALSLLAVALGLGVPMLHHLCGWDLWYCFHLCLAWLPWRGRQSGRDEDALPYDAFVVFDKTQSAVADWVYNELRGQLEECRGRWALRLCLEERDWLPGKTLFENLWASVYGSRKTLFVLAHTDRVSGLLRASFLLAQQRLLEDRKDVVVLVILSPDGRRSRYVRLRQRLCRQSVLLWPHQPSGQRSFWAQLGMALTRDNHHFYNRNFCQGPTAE
The experiment can be described thus: TLR9 inhibition reporter assay (HEK-Blue SEAP reporter, ODN2006 stimulation). The conditions noted are these: HEK-Blue cells overexpressing human TLR9, SEAP reporter, ODN2006 5 nM, 22 hour incubation. The method, boiled down: (§1)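 HEK-Blue cells overexpressing human TLR7, TLR8 or TLR9 carry a SEAP reporter driven by NF-κB/AP-1 sites. Compounds (0.05 nM–50 μM) were preincubated 30 min at room temperature, then cells were stimulated with gardiquimod 7.5 μM (TLR7), R848 15.9 μM (TLR8) or ODN2006 5 nM (TLR9) for 22 h at 37 °C.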

The target of another experiment is T2, human TLR8 (Homo sapiens, UniProt Q9NR97).
T2 construct: host or cells: HEK-Blue cells
T2 sequence (Q9NR97 27-1041): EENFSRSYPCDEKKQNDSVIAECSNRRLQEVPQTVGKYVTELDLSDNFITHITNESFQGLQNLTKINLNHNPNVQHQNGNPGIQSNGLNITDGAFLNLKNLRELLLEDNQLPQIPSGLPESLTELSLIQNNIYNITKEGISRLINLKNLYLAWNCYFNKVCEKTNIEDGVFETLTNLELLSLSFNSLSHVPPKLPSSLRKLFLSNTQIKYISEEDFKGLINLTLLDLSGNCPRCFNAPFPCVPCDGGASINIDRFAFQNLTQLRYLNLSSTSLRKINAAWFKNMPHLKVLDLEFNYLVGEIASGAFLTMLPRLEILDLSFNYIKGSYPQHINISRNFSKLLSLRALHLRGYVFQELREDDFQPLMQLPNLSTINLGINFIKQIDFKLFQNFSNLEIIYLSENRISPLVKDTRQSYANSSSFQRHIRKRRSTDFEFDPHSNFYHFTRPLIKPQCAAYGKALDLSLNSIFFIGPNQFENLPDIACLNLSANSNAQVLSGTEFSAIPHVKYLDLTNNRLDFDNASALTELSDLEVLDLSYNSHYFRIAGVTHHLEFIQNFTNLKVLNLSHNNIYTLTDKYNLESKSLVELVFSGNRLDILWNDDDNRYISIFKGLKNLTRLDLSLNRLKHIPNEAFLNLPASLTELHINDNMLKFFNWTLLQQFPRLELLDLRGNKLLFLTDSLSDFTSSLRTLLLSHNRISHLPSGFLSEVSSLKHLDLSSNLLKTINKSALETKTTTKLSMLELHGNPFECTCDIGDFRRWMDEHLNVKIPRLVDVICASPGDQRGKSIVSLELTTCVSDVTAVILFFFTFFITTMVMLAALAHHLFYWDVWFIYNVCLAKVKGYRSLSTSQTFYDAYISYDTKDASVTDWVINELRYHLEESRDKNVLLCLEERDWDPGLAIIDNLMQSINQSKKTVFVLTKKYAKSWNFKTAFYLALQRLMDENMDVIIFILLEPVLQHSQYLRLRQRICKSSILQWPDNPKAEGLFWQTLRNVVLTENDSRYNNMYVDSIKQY
Kind of experiment: TLR8 inhibition reporter assay (HEK-Blue SEAP reporter, R848 stimulation). As to conditions: HEK-Blue cells overexpressing human TLR8, SEAP reporter, R848 15.9 μM, 22 hour incubation. The procedure, abridged:
as §1

The next experiment concerns the target T3, human TLR7 (Homo sapiens, UniProt Q9NYK1).
T3 construct: host or cells: HEK-Blue cells
T3 sequence (Q9NYK1 27-1049): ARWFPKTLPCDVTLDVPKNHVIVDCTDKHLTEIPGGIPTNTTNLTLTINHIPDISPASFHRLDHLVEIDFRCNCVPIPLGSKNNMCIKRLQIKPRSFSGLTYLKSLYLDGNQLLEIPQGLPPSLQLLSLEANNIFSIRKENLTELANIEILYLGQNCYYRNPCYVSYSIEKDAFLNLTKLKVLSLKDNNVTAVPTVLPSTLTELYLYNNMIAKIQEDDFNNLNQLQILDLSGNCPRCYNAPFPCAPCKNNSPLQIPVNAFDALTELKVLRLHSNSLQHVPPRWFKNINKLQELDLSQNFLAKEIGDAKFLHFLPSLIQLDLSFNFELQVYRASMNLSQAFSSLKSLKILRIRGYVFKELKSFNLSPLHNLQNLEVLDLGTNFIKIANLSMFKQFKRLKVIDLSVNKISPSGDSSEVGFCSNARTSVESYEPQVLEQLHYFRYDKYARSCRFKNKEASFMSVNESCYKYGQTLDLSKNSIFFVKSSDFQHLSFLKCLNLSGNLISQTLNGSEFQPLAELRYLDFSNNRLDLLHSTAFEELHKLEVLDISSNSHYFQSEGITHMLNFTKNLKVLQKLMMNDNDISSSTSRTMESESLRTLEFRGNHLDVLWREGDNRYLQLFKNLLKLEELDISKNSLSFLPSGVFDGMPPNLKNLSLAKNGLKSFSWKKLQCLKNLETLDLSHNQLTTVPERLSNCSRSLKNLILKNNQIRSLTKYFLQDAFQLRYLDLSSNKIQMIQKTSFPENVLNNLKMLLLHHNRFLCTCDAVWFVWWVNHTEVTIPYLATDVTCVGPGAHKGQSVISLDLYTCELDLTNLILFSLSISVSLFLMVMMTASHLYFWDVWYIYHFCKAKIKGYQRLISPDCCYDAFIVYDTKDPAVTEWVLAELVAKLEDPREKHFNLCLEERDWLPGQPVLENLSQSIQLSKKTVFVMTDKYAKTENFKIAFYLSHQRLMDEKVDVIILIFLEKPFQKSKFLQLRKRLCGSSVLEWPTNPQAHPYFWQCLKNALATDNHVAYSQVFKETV
The experiment can be described thus: TLR7 inhibition reporter assay (HEK-Blue SEAP reporter, gardiquimod stimulation). The conditions noted are these: HEK-Blue cells overexpressing human TLR7, SEAP reporter, gardiquimod 7.5 μM, 22 hour incubation. The procedure, abridged: as §1

`Cc1c(-c2[nH]c3ccc(C4CCN(CC(C)(C)O)CC4)cc3c2C(C)C)cc(C#N)c(=O)n1C` [Example 321, 5-(5-(1-(2-hydroxy-2-methylpropyl)piperidin-4-yl)-3-isopropyl-1H-indol-2-yl)-1,6-dimethyl-2-oxo-1,2-dihydropyridine-3-carbonitrile]: the 50% inhibitory concentration (IC50) was found to be 4.37 µM against human TLR9, 0.0016 µM against human TLR8 and 0.0367 µM against human TLR7.
`CCc1c(-c2cn(C)c(=O)c(Cl)c2C)[nH]c2ccc(C3CCN(CC(=O)N(C)C)CC3)cc12` [Example 157, 2-(4-(2-(5-chloro-1,4-dimethyl-6-oxo-1,6-dihydropyridin-3-yl)-3-ethyl-1H-indol-5-yl)piperidin-1-yl)-N,N-dimethylacetamide]: the figures for the IC50 against human TLR9, on human TLR8 and at human TLR7 were 6.39 µM, 0.0122 µM and 0.0128 µM, respectively.
For the molecule `CC(C)c1c(-c2cc(-c3cncnc3)c(=O)n(C)c2)[nH]c2ccc(C3CCN(CC4CCOC4)CC3)cc12` (stereo not drawn) [Example 257, 5-(3-isopropyl-5-(1-((tetrahydrofuran-3-yl)methyl)piperidin-4-yl)-1H-indol-2-yl)-1-methyl-3-(pyrimidin-5-yl)pyridin-2(1H)-one], the half-inhibitory concentration (IC50) on human TLR9 amounted to 1.98 µM; against human TLR8, 0.0011 µM; against human TLR7, 0.0156 µM.
Taken in the same sequence, the figures for `CC(C)c1c(-c2ccc(=O)n(C)c2)[nH]c2ccc(C3CCN(C4COC4)CC3)cc12` [Example 179, 5-(3-isopropyl-5-(1-(oxetan-3-yl)piperidin-4-yl)-1H-indol-2-yl)-1-methylpyridin-2(1H)-one] were 3.93 µM, 0.0288 µM and 0.0951 µM.
Turning to `COc1c(C)c(-c2[nH]c3ccc(C4CCN(CC(C)(C)O)CC4)cc3c2C(C)C)cn(C)c1=O` [Example 317, 5-(5-(1-(2-hydroxy-2-methylpropyl)piperidin-4-yl)-3-isopropyl-1H-indol-2-yl)-3-methoxy-1,4-dimethylpyridin-2(1H)-one], the IC50 against human TLR9 amounted to 3.58 µM; against human TLR8, 0.0072 µM; against human TLR7 it was 0.0193 µM.
Consider `Cc1c(-c2[nH]c3ccc(C4CCN(C(=O)CN(C)C)CC4)cc3c2C(C)C)nn(C)c(=O)c1C` [Example 283, 6-(5-(1-(dimethylglycyl)piperidin-4-yl)-3-isopropyl-1H-indol-2-yl)-2,4,5-trimethylpyridazin-3(2H)-one], for which the IC50 against human TLR9 was 6.25 µM; at human TLR8, 0.0468 µM; on human TLR7 it was 0.512 µM.
For `Cc1cc(-c2cc(-c3[nH]c4ccc(C5CCN(C(C)C)CC5)cc4c3C(C)C)cn(C)c2=O)cnc1F` [Example 343, 6′-fluoro-5-(3-isopropyl-5-(1-isopropylpiperidin-4-yl)-1H-indol-2-yl)-1,5′-dimethyl-[3,3′-bipyridin]-2(1H)-one], the values for the IC50 at human TLR9, against human TLR8 and against human TLR7 were 1.17 µM, 0.0142 µM and 0.0183 µM, respectively.
Regarding `COc1cc(-c2[nH]c3ccc(C4CCN(C5COC5)CC4)cc3c2C(C)C)c(C)n(C)c1=O` [Example 217, 5-(3-isopropyl-5-(1-(oxetan-3-yl)piperidin-4-yl)-1H-indol-2-yl)-3-methoxy-1,6-dimethylpyridin-2(1H)-one], the half-maximal inhibitory concentration (IC50) at human TLR9 was 10.9 µM; against human TLR8, 0.163 µM; at human TLR7, 0.659 µM.
For `Cc1c(-c2[nH]c3ccc(C4CCN(CC5(O)CCOCC5)CC4)cc3c2C(C)C)cn(C)c(=O)c1C` [Example 319, 5-(5-(1-((4-hydroxytetrahydro-2H-pyran-4-yl)methyl)piperidin-4-yl)-3-isopropyl-1H-indol-2-yl)-1,3,4-trimethylpyridin-2(1H)-one] the same measures were 4.33 µM, 0.0016 µM and 0.0109 µM.
Turning to `CC(C)c1c(-c2cc(Cl)c(=O)n(C)c2)[nH]c2ccc(C3CCNCC3)cc12` [Example 22, 3-chloro-5-(3-isopropyl-5-(piperidin-4-yl)-1H-indol-2-yl)-1-methylpyridin-2(1H)-one], the half-maximal inhibitory concentration (IC50) was determined as 2.55 µM at human TLR9, 0.0107 µM at human TLR8 and 0.0011 µM at human TLR7.
